{"source": "patent US20140128333A1", "about": "“Compounds, Compositions, and Methods for Decreasing Intestinal Glucose Uptake and Inducing Incretin Release” (MAQUI NEW LIFE S.A., priority 2012, published 2014)", "key": {"GLP-1 production": {"system": "GLP-1 production", "experiment": "GLP-1 production in NCI-H716 cells by flow cytometry", "format": "cell-based", "conditions": "50 μM delphinidin, 48 hrs, Brefeldin A", "experimental": "After two washes in PBS, the cells were stained with mouse anti-GLP-1 antibody for 1 hr at 4° C. The cells were washed twice with PBS, incubated for 1 hr at 4° C. with anti-mouse Alexa 488 (1:200 dilution) and finally washed twice with PBS. The cells were assessed by flow cytometry on a FACSCanto II (Becton Dickinson)."}, "GLP-1 mRNA expression": {"system": "GLP-1 mRNA expression", "experiment": "GLP-1 mRNA expression in NCI-H716 cells by qRT-PCR", "format": "cell-based", "conditions": "delphinidin 10, 50 or 100 μM tested, increase at 50 and 100 μM, 24 h", "experimental": "Total RNA was isolated from […] cells using the RNeasy Plus Mini Kit according to the manufacturer's instructions. Approximately 1 μg of total RNA, 0.5 μg of oligo (dT)18 primer, 10 mM dNTPs and 200 U of reverse transcriptase were used for each cDNA synthesis reaction. PCR amplifications were performed using the Brilliant II SYBR Green QPCR Master Mix (Stratagene) according to the manufacturer's instructions. All reactions were carried out using an Mx300p thermal cycler (Stratagene, Calif., USA). GLP-1 specific primers were used."}, "GPR40 receptor": {"target": "T1, GPR40 receptor (Homo sapiens, UniProt O14842)", "T1 construct": "To assess and ensure the participation of GPR40 on calcium mobilization induced by delphinidin and cyanidin, Fura-2/AM-loaded HT-29 cells; endogenous in cells; host or cells: HT-29 cells", "T1 sequence (O14842 whole entry)": "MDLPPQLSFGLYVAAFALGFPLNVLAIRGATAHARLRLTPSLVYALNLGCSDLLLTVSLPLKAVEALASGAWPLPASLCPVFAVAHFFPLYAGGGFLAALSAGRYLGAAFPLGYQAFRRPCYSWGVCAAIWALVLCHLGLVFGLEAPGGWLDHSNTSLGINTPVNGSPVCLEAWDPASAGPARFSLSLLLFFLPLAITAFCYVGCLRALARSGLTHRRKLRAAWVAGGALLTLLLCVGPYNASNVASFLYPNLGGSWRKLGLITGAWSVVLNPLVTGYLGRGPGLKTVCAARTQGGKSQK", "experiment": "Measurement of calcium influx in Fura-2/AM-loaded HT-29 cells", "format": "cell-based", "conditions": "100 μM", "quoted_text": "HT-29 cells were suspended in HBSS at a concentration of 20×10^6 cells/ml and incubated with 1 μM Fura-2/AM (Molecular Probes) for 30 min at 37° C. The cells were then washed twice, divided into 2×10^6 cells/ml aliquots and maintained at 4° C. in the dark until use. Cells were then pelleted by centrifugation at 1200 rpm for 6 min and re-suspended in 2 ml HEPES buffer [20 mM HEPES, pH 7.2; 140 mM NaCl; 10 mM glucose; 1 mM KCl; 1 mM Ca^2+ chloride (CaCl2); and 1 mM MgCl2].\nThe influx of Ca^2+ was recorded as the 340:380 excitation ratio at 509 nm emission in a LS55 thermoregulated spectrofluorimeter (Perkin-Elmer, Mass., USA)."}, "SGLT-1": {"target": "T2, SGLT-1 (Mus musculus, UniProt Q8C3K6)", "T2 construct": "Two sections of jejunum per animal were mounted in Ussing Chambers; from tissue; host or cells: jejunum of C57Bl/6J mice", "T2 sequence (Q8C3K6 1-665)": "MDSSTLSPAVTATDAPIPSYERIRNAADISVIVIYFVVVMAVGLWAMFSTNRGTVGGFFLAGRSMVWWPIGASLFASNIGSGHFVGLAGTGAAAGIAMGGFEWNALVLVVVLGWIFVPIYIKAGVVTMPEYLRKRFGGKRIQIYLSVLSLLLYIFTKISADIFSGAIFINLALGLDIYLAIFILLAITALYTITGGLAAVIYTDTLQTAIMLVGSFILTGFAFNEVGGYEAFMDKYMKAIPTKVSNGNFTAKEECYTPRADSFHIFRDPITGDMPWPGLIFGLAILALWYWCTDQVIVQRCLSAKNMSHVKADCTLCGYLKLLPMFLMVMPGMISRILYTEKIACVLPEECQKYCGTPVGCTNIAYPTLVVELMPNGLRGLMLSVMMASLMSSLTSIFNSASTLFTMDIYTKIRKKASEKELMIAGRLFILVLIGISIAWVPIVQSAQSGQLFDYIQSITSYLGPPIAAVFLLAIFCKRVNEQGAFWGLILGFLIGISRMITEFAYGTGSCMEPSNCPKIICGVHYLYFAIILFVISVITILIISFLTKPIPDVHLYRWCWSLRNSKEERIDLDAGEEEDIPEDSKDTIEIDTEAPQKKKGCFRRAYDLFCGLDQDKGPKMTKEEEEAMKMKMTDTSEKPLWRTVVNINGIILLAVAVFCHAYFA", "experiment": "Ussing chamber: sodium-coupled D-glucose transport in mouse jejunum (short circuit current)", "conditions": "50 μM delphinidin on mucosal side", "description": "C57B1/6J mice were obtained from The Jackson Laboratory (Bar Harbor, Me., USA). The mice were maintained at the Specific Pathogen Free mouse facility of the Centro de Estudios Científicos (CECS), Valdivia, Chile and prior to the experiments they had free access to water and food. Animals were killed by cervical dislocation according to local Institutional Animal Care and Use Committee (IACUC) regulations. The jejunum was isolated, open longitudinally along the mesenteric border and rinsed with phosphate buffered saline (PBS).\nTwo sections of jejunum per animal were mounted in Ussing Chambers and maintained in Ussing buffer (120 Mm NaCl, 25 mM NaHCO3, KH2PO4 3.3 mM, 0.8 mM K2HPO4, 1.2 mM MgCl2 and 1.2 mM CaCl2) supplemented with 10 mM D-glucose in the serosal side. […] The effect of delphinidin on sodium-coupled transport of glucose was determined by application of this molecule at a concentration of 50 μM in the mucosal side of the preparation. The transepithelial electrical potential difference (VM), defined as the potential side compared to serous mucus preparation was recorded continuously under current clamp configuration using a VCC MC2 amplifier (Physiological Instruments). The values of short circuit current (Isc) were calculated from experimental data using Ohm's law. The results are expressed as the intensity of the Isc (μA/cm^2). […]"}}, "note": "“Also recorded” adds a separate entry of the source.", "data": [{"smiles": "Oc1cc(O)c2cc(O)c(-c3cc(O)c(O)c(O)c3)[o+]c2c1", "note": "[Delphinidin, 2-(3,4,5-trihydroxyphenyl)chromenylium-3,5,7-triol]", "values": [{"measurement": "amount of GLP-1 compared to control cells", "setting": "GLP-1 production", "result": "induced an increase"}, {"measurement": "expression of GLP-1 mRNA with respect to control", "setting": "GLP-1 mRNA expression", "result": "induces; also recorded: increased"}, {"measurement": "calcium fluxes (340/380 ratio) in HT-29 cells", "setting": "GPR40 receptor", "result": "induces calcium fluxes"}, {"measurement": "decrease of sodium current (Isc) induced by 10 mM D-glucose / inhibition of glucose transport by jejunal mucosa", "setting": "SGLT-1; n=4", "result": "about 40%"}, {"measurement": "decrease of sodium current (Isc) induced by 10 mM D-glucose / inhibition of glucose transport by jejunal mucosa", "setting": "SGLT-1; n=4, listed as delphinidin", "result": "approximately 60%"}]}]}
